This is an account of results in ChEMBL document CHEMBL4339232, “Exploiting Chemical Toolboxes for the Expedited Generation of Tetracyclic Quinolines as a Novel Class of PXR Agonists” (ACS Med Chem Lett, 2019).

The target of data set [1] is T1, PXR (Nuclear receptor subfamily 1 group I member 2) (Homo sapiens, UniProt O75469).
T1 sequence (O75469 whole entry): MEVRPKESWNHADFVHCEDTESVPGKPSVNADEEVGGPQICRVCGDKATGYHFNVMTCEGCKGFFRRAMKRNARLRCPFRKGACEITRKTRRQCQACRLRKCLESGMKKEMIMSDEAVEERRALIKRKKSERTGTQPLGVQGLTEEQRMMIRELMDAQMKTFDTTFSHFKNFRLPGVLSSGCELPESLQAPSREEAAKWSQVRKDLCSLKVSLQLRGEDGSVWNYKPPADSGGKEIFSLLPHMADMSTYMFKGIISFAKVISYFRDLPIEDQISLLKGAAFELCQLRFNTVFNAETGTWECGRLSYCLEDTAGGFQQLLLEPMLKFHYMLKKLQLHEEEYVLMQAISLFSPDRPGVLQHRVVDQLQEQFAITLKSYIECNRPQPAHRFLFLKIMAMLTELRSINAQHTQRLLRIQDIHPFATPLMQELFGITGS
Nature of the data set: Agonist activity at PXR (unknown origin) at 20 uM by AlphaScreen assay relative to T0901317. The settings on record: read-out: Activity.

Data set [2] addresses T2, Nuclear receptor subfamily 1 group I member 2 (Homo sapiens, UniProt O75469).
T2 sequence (O75469 whole entry): T1 sequence (O75469 whole entry)
Nature of the data set: Agonist activity at PXR (unknown origin) by AlphaScreen assay.

Data set [3] has as its target T1, PXR (Nuclear receptor subfamily 1 group I member 2). Nature of the data set: Agonist activity at PXR (unknown origin) assessed as maximum receptor activation response at 20 uM by AlphaScreen assay relative to T0901317. As to conditions: read-out: Efficacy. On the technique in general: In Alpha technology, singlet oxygen from a donor bead excites a nearby acceptor bead.

In general, EC50 refers to the concentration needed to bring the measured effect to its halfway point. Read a low EC50 as greater potency.

Take `c1coc([C@H]2Nc3c(ccc4c3CCCC4)[C@@H]3OCCC[C@H]23)c1` (racemic): the activity at 20 µM in data set [1] is less than 25%.

`CC(C)(C)OC(=O)N1CC[C@H]2[C@@H](c3ccsc3)Nc3c(ccc4c3CCCC4)[C@H]21` returned a 50% effective concentration (EC50) in data set [2] of 3.2 µM. Besides, the Emax at 20 µM in data set [3] worked out at 60%. Besides, the activity at 20 µM in data set [1] lay in the range of 50 to 75%.

Regarding `c1coc([C@@H]2Nc3c(ccc4c3CCCC4)[C@@H]3OCCC[C@H]23)c1` (racemic), the activity at 20 µM in data set [1] was in the range of 50 to 75%.

Take `c1coc([C@@H]2Nc3c(ccc4c3CCCC4)[C@@H]3OCC[C@H]23)c1` (racemic): the activity at 20 µM in data set [1] lay within 50 to 75%.

Consider `CC(C)(C)OC(=O)N1CCC[C@@H]2[C@@H](c3ccco3)Nc3c(ccc4c3CCCC4)[C@@H]21` (racemic), for which, in data set [1], the activity at 20 µM lay in the range of 25 to 50%.

Regarding `c1csc([C@H]2Nc3c(ccc4c3CCCC4)[C@@H]3OCC[C@H]23)c1` (racemic), in data set [1], the activity at 20 µM was less than 25%.

Take `c1ccc([C@@H]2Nc3c(ccc4c3CCCC4)[C@@H]3OCCC[C@H]23)cc1` (racemic): the activity at 20 µM in data set [1] is less than 25%.

In data set [2], `c1cc([C@@H]2Nc3c(ccc4c3CCCC4)[C@@H]3OCC[C@H]23)cs1` (racemic) displayed a concentration for a half-maximal effect (EC50) of 3.5 µM. For the same molecule, the Emax at 20 µM in data set [3] came out at 42%. Further, the activity at 20 µM in data set [1] fell in the range of 75 to 100%.

Regarding `CC(C)(C)OC(=O)N1CC[C@@H]2[C@H](c3ccsc3)Nc3c(ccc4c3CCCC4)[C@@H]21` (racemic), the EC50 in data set [2] was determined as 8.4 µM. Moreover, the Emax at 20 µM in data set [3] was 28%.

For the molecule `c1cc([C@H]2Nc3c(ccc4c3CCCC4)[C@@H]3OCC[C@H]23)cs1` (racemic), in data set [1], the activity at 20 µM lay in the range of 25 to 50%.

As to `CC(C)(C)OC(=O)N1CCC[C@@H]2[C@@H](c3ccsc3)Nc3c(ccc4c3CCCC4)[C@@H]21` (racemic), the activity at 20 µM in data set [1] was less than 25%.

Turning to `c1ccc([C@@H]2Nc3c(ccc4c3CCCC4)[C@@H]3OCC[C@H]23)cc1` (racemic), in data set [1], the activity at 20 µM lay within 25 to 50%.

Take `CC(C)(C)OC(=O)N1CCC[C@@H]2[C@@H](c3ccccc3)Nc3c(ccc4c3CCCC4)[C@@H]21` (racemic): in data set [1], the activity at 20 µM is less than 25%.

As for `CC(C)(C)OC(=O)N1CC[C@@H]2[C@@H](c3ccccc3)Nc3c(ccc4c3CCCC4)[C@@H]21` (racemic), in data set [1], the activity at 20 µM was less than 25%.

With `CC(C)(C)OC(=O)N1CCC[C@@H]2[C@H](c3ccccc3)Nc3c(ccc4c3CCCC4)[C@@H]21` (racemic), the activity at 20 µM in data set [1] was less than 25%.

Consider `CC(C)(C)OC(=O)N1CC[C@@H]2[C@H](c3ccco3)Nc3c(ccc4c3CCCC4)[C@@H]21` (racemic), for which the response in data set [2] was half-maximal at 1.5 µM (EC50). Moreover, the Emax at 20 µM in data set [3] amounted to 53%. Further, the activity at 20 µM in data set [1] was 75 to 100%.

For `CC(C)(C)OC(=O)N1CC[C@@H]2[C@H](c3ccccc3)Nc3c(ccc4c3CCCC4)[C@@H]21` (racemic), in data set [1], the activity at 20 µM is 50 to 75%.

In data set [2], `CC(C)(C)OC(=O)N1CC[C@@H]2[C@@H](c3ccsc3)Nc3c(ccc4c3CCCC4)[C@@H]21` (racemic) came in with an EC50 of 3.7 µM. Further, the Emax at 20 µM in data set [3] turned out to be 15%.

As for `CC(C)(C)OC(=O)N1CCC[C@@H]2[C@H](c3ccsc3)Nc3c(ccc4c3CCCC4)[C@@H]21` (racemic), the activity at 20 µM in data set [1] lay in the range of 50 to 75%.

`CC(C)(C)OC(=O)N1CC[C@@H]2[C@H]1c1ccc3c(c1N[C@H]2c1ccsc1)CCCC3` gave a 50% effective concentration (EC50) in data set [2] of 1.2 to 1.6 µM. The Emax at 20 µM in data set [3] is 82 to 119%. Further, the activity at 20 µM in data set [1] was 75 to 100%.

Consider `c1ccc([C@H]2Nc3c(ccc4c3CCCC4)[C@@H]3OCCC[C@H]23)cc1` (racemic), for which the activity at 20 µM in data set [1] was less than 25%.

Turning to `c1cc([C@@H]2Nc3c(ccc4c3CCCC4)[C@@H]3NCCC[C@H]23)cs1` (racemic), in data set [1], the activity at 20 µM was less than 25%.

With `c1csc([C@@H]2Nc3c(ccc4c3CCCC4)[C@@H]3OCC[C@H]23)c1` (racemic), the activity at 20 µM in data set [1] was 50 to 75%.

As for `c1coc([C@H]2Nc3c(ccc4c3CCCC4)[C@@H]3OCC[C@H]23)c1` (racemic), the activity at 20 µM in data set [1] is less than 25%.

For the molecule `c1cc([C@@H]2Nc3c(ccc4c3CCCC4)[C@@H]3NCC[C@H]23)cs1` (racemic), the activity at 20 µM in data set [1] was less than 25%.

As to `CC(C)(C)OC(=O)N1CCC[C@@H]2[C@H](c3ccco3)Nc3c(ccc4c3CCCC4)[C@@H]21` (racemic), the activity at 20 µM in data set [1] lay within 25 to 50%.

For the molecule `c1coc([C@@H]2Nc3c(ccc4c3CCCC4)[C@@H]3NCCC[C@H]23)c1` (racemic), the activity at 20 µM in data set [1] is less than 25%.

As for `c1coc([C@@H]2Nc3c(ccc4c3CCCC4)[C@@H]3NCC[C@H]23)c1` (racemic), the activity at 20 µM in data set [1] is less than 25%.

Regarding `c1ccc([C@@H]2Nc3c(ccc4c3CCCC4)[C@@H]3NCC[C@H]23)cc1` (racemic), the activity at 20 µM in data set [1] was less than 25%.

For `c1ccc([C@H]2Nc3c(ccc4c3CCCC4)[C@@H]3OCC[C@H]23)cc1` (racemic), the activity at 20 µM in data set [1] was less than 25%.

Consider `CC(C)(C)OC(=O)N1CC[C@@H]2[C@@H](c3ccco3)Nc3c(ccc4c3CCCC4)[C@@H]21` (racemic), for which the activity at 20 µM in data set [1] is 25 to 50%.
